Experiments:
[1] = biological target: T1, AChE (acetylcholinesterase) (Electrophorus electricus, UniProt O42275); test: Ellman assay, […] nm, microplate; format: biochemical; details: read-out: IC50 (μg.mL^-1) (converted)
T1 construct: native enzyme isolated from electric eel, type VI-S (printed 'type VIS')

[2] = biological target: T2, BuChE (butyrylcholinesterase) (Equus caballus, UniProt P81908); test: Ellman assay, […] nm, microplate; format: biochemical; details: read-out: IC50 (μg.mL^-1) (converted)
T2 construct: gene BCHE; native enzyme isolated from horse serum
T2 sequence (P81908 whole entry): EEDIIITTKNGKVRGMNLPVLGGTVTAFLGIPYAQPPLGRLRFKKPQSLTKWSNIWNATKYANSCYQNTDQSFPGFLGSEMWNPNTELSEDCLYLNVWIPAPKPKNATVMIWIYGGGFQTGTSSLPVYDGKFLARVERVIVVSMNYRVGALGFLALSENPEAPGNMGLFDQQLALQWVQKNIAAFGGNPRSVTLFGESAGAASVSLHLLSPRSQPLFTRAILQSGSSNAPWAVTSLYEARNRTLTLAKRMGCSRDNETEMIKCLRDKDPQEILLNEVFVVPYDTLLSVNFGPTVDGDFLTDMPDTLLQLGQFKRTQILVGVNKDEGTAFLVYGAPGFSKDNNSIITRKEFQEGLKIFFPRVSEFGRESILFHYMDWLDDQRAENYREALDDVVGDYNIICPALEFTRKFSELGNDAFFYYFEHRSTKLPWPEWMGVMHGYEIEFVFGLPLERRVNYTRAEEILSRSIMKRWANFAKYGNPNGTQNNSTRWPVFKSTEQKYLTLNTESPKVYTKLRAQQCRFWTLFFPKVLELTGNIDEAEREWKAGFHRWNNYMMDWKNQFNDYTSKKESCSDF

T1 sequence (O42275 24-633): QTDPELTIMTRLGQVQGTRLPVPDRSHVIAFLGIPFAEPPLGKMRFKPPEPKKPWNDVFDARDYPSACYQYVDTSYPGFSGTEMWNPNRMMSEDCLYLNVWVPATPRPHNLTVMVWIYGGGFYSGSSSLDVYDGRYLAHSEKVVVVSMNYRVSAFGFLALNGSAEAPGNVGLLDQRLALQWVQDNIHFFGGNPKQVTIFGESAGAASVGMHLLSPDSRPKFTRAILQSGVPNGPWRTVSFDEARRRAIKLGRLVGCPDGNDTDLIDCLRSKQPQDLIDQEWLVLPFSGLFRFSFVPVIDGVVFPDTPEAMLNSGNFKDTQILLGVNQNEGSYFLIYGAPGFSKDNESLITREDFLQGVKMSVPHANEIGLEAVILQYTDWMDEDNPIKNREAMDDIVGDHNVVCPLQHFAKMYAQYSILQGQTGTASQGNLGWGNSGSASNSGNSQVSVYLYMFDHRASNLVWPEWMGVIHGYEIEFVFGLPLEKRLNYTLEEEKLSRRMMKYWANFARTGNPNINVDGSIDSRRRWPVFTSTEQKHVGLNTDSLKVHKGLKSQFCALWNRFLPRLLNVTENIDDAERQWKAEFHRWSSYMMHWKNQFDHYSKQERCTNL

## COc1cc(/C=C/C(=O)O)ccc1O [ferulic acid]
[1]
  IC50: 2100 µM
[2]
  IC50: 2680 µM

From publication PMC10938454, “Preparation, Characterization, Antioxidant Activities, and Determination of Anti-Alzheimer Effects of PLGA-Based DDSs Containing Ferulic Acid” (ACS Omega, 2024)
